Test results from a melting point compilation (Tetko et al.; mined from patent text by program, amines drawn as free bases though some values may be those of a salt).

| SMILES | melting point |
| --- | --- |
| COC(=O)CCCc1cc2nc(Cl)ccc2n1S(=O)(=O)c1ccc2nc(N)sc2c1 | 85 to 90 °C |
| Nc1noc(C23CCCN(C2)C3)n1 | 167 to 170 °C |
| O=c1ccc2cccc(Oc3cc(-c4ccc(C(F)(F)F)cc4)ncn3)c2[nH]1 | 312 °C |
| O=C(Oc1ccccc1)C1=C(O)CCn2c1nc1ccccc12 | 176 to 178 °C |
| CC(C)c1cccc(S(=O)(=O)n2c(CCCC(=O)O)cc3nc(Cl)ccc32)c1 | 119 °C |
| O=C(O)c1ccc2c(c1)C(=O)CCC2 | 210 to 215 °C |
| O=Cc1cc2ccccc2c(-c2ccc(I)cc2)n1 | 243 to 245 °C |
| Nc1ccc(F)c(N2C(=O)C3=C(CCCC3)C2=O)c1 | 134 to 136 °C |
| CC(=O)O[C@H]1[C@H](NC(=N)Nc2ccccc2)c2cc(C#N)ccc2OC1(C)C (relative stereo) | 239 to 240 °C |
| COC(=O)c1ccc(CO)nc1C1=NC(C)(C(C)C)C(=O)N1 (stereo not given) | 115 to 118 °C |
| CN(C(=O)Cl)c1ccccc1C(F)(F)F | 44 to 46 °C |
| O=C(CCC(=O)N1Cc2c(cc3ccc4c(c3c2-c2ccc3c(c2)OCO3)OCO4)C1=O)OCc1ccccc1 | 128 to 129 °C |
| COC1=C(OC)C(=O)C2=C(CCC(CCOc3ccc(NC(C)=O)cc3)CC2)C1=O | 151 to 154 °C |
| OC(CNCc1ccccc1)c1cc(C(F)(F)F)nc2c(C(F)(F)F)cccc12 (stereo not given) | 138 to 139 °C |
| COc1ccc(C23CC(c4ccccc4)C(=O)N2CCN3)cc1 (stereo not given) | 150 °C |
| CCOC(=O)/C(=C\Nc1cc(OC)ccc1OC)c1ccccc1 | 93 to 94 °C |
| O=[N+]([O-])c1cnc2ccc(S)cc2c1-c1ccccc1 | 160 to 163 °C |
| CCNC(=O)C1=C(OC(C)C)c2cc(OC)ccc2S1=O (stereo not given) | 88 to 90 °C |
| NC(=O)CNC(=O)c1ccc(-c2cccc3cc(Cc4cccc(C(F)(F)F)c4)sc23)cc1 | 134 to 136 °C |
| CC(C)n1c(CC[C@@H](O)C[C@@H](O)CC(=O)O)c(-c2ccc(F)cc2)c(-c2ccc(F)cc2)c1C(=O)NCc1ccc(C(=O)O)cc1 | 140 to 142 °C |
| CCOC(=O)c1conc1-c1ccc(Cl)c(F)c1 | 77 to 78 °C |
| Cc1cccnc1NC(=O)Nc1cccc2c1C1CC(=O)CCN1C2=O (stereo not given) | > 260 °C |
| CN1CCN(S(=O)(=O)Nc2ccc(-c3nc(-c4ccc(F)cc4)c(-c4ccncc4)[nH]3)cc2)CC1 | 74 to 76 °C |
| CCn1cc(-c2ccccc2)c2ncccc2c1=O | 142 °C |
| CN(C)CCc1ccc(N)c2[nH]ncc12 | 125 °C |

| SMILES | melting point |
| --- | --- |
| Cc1nnc(CN2C(=O)c3ccccc3C2=O)n1-c1ccc(Cl)cc1C(=O)c1ccccc1Cl | 262 to 265 °C |
| CC(C(=O)Cl)c1ccc2c(c1)CCc1ccccc1C2=O (stereo not given) | 142 °C |
| CC(C)(C)OC(=O)N1CCN(c2ccc(N3CC(CO)OC3=O)cc2F)CC1 (stereo not given) | 144 to 146 °C |
| CCCOc1ccc(/C=C/c2cc(OC)c(OC)c(OC)c2)cc1 | 82 to 83 °C |
| Cc1cc(-c2ccccc2)c(=O)n2c1-c1sccc1CC2 | 80.5 to 81 °C |
| C[C@]1(CN2CCN(C(=O)OCc3cc(Cl)cc(Cl)c3)CC2)Cn2cc([N+](=O)[O-])nc2O1 | 129 to 130 °C |
| N#Cc1cccc(C2=Nc3ccc(C=Cc4ccccc4)cc3NC(=O)C2)c1 | 185 to 188 °C |
| O=C1Nc2ccccc2Sc2c1cccc2C(F)(F)F | 256 to 258 °C |
| CCN1C(=O)[C@@H](N)COc2ccccc21 | 97 °C |
| CCOC(=O)Cc1nc(C)n2c1CN=C(c1ccccc1Cl)c1cc(Cl)ccc1-2 | 143 to 154 °C |
| O=C(NC(=O)C(c1ccccc1)c1ccccc1)OCC(F)(F)F | 125 to 127 °C |
| Cc1cccc(C(=O)NCN2CCN(c3ccccc3C#N)CC2)c1 | 131 to 133 °C |
| CCN(c1nc(NCCO)nc(N(CC)C2CC(C)(C)NC(C)(C)C2)n1)C1CC(C)(C)NC(C)(C)C1 | 184 to 185 °C |
| COc1ccc(C(N)C2(C(=O)O)C3CC4CC(C3)CC2C4)cc1 (stereo not given) | 205 to 213 °C |
| COC(=O)[C@@H]1CSCN1C(=O)/C=C\Sc1ccccc1 | 126 to 128 °C |
| CC(C)(C)OC(=O)[C@@H]1N(S(=O)(=O)c2ccc(O)cc2)CCSC1(C)C | 171 °C |
| COc1ccc(C(CN(C)C)c2nnc3n2-c2ccc(Cl)cc2C(c2ccccc2)=NC3)cc1 (stereo not given) | 138 to 142 °C |
| CCOC(=O)c1c(OCC)nsc1NC(=O)N(C)C | 164 to 165 °C |
| OCCNC(c1ccccc1)(c1ccccc1)c1ccccc1 | 94 to 97 °C |
| COc1cccc2c1CN(Nc1ccncc1)C2 | 144 to 146 °C |
| O=Cc1ccc(-c2ccc3ncnc(Nc4ccc(OCc5cccc(F)c5)c(Cl)c4)c3c2)s1 | 252 °C |
| COC(=O)c1ccc(-c2ccc(NC(=O)c3ccc(OC)c(C#CCN(C)C)c3)cc2)cc1 | 234 to 237 °C |
| Nc1nc(N2CCOCC2)nc2ccccc12 | 216 to 219 °C |
| N#CCC(=O)Nc1ccc(OCc2cccc(F)c2)cc1 | 164 to 166 °C |
| CCN(CC)C(C)CN1CCc2c(c(=O)oc3cc(OC)ccc23)C1 (stereo not given) | 83 to 85 °C |

| SMILES | melting point |
| --- | --- |
| Cc1ccc(S(=O)(=O)c2ccccc2)nc1 | 117 to 118 °C |
| O=C(Nc1ccn2cc(CO)nc2c1)c1cc2cc(C(F)(F)F)ccc2n1Cc1cccc(F)c1 | 254 to 255 °C |
| COc1ccc2cccc(CCOS(=O)(=O)c3ccccc3)c2c1 | 61.8 to 63 °C |
| CN1C(=O)NC(=O)C(C=O)C1=O (stereo not given) | 197 to 199 °C |
| CCC(O)(Cn1cncn1)C(c1ccc(Cl)cc1)n1cncn1 (stereo not given) | 60 to 64 °C |
| Cc1cc(SCc2ccc(OCc3ccc(F)cc3)cc2)ccc1OCC(=O)O | 154 to 155 °C |
| COc1c(-c2ccc(O)c(O)c2)oc2cc(O)ccc2c1=O | 281 °C |
| CCCCCc1ncc(C(=O)OCC)c(NCc2ccc(-c3ccccc3-c3nnnn3C(c3ccccc3)(c3ccccc3)c3ccccc3)cc2)n1 | 107 to 108 °C |
| c1ccc(-c2c[nH]nc2-c2ccccc2)cc1 | 150 to 152 °C |
| COc1cc(-c2nc3ccc(OCCN(C)C)cc3n2Cc2ccccc2Br)cc(OC)c1OC | 152 °C |
| CCCC1NS(=O)(=O)N(CCN2CC=C(c3c[nH]c4cc(F)ccc34)CC2)c2ccccc21 (stereo not given) | 196 to 198 °C |
| Cn1cc(Br)cc(Nc2ccccn2)c1=O | 153 to 154 °C |
| O=S(=O)(Nc1cccc(CC2Cc3ccc(OCc4nc5cc(F)c(F)cc5s4)cc3C2O)c1)C(F)(F)F (stereo not given) | 170 to 172 °C |
| C[C@H](NC(CCC(=O)O)C(=O)O)C(=O)N1CCC[C@H]1C(=O)O (stereo not given in full) | 140 to 160 °C |
| CP1(=O)c2ccccc2CN1c1ccc(Oc2ccccc2)cc1 (stereo not given) | 176 to 177 °C |
| C1=C(/C=C/c2ccccc2)CCN(Cc2n[nH]c3c2CCc2ccccc2-3)C1 | 205 to 210 °C |
| O=C(Nc1ccc(-n2nc(C3CC3)cc2C2CC2)cc1)c1ccc2nn[nH]c2c1 | 240 to 246 °C |
| CNS(=O)(=O)c1cc2ccccc2cc1CC(=O)O | 185 to 186 °C |
| COc1ccc(-c2ccc(C(=O)Nc3ccc4cc(CN5CCCCC5)cnc4c3C)cc2F)cc1 | 148 to 149 °C |
| O=c1c2cccnc2c(-c2cccc(Cl)c2)cn1Cc1ccccc1 | 149 to 150 °C |
| CN1C(=O)C2CC(c3ccc(N)cc3)(C2)C1=O | 197 to 198 °C |
| Nc1ccc(CC2CCN(S(=O)(=O)N3CCCCC3)CC2)cc1 | 144 to 145 °C |
| COc1cc(Nc2nccc(Nc3ccc(OCC(=O)OC(C)(C)C)cc3)n2)cc(OC)c1OC | 139 °C |
| COc1cccc(NC(=NC#N)NC(NC(=O)c2ccc(Cl)cc2)C(C)(C)C)c1 (stereo not given) | 173 to 175 °C |
| CCc1nc(C(=O)NCC(C=C(C)C(CC)[N+](=O)[O-])=NO)c[nH]1 (stereo not given) | 75 to 79 °C |

| SMILES | melting point |
| --- | --- |
| CCOC(=O)C1CCc2ccc(OC)cc2C1 (stereo not given) | 125 to 127 °C |
| N#Cc1ncn2c1[C@@H]1CCN1C(=O)c1c-2ccc(F)c1Cl | 225 to 228 °C |
| N#Cc1cccc(OC(=O)C(=O)Oc2cccc(C#N)c2)c1 | 187 to 190 °C |
| COC(=O)C(=CO)c1ccccc1 | 33.5 to 35.5 °C |
| NC(=O)Cc1c(C(=O)c2ccccc2)[nH]c2cc(Cl)ccc12 | 234 to 237 °C |
| CNC(=O)NNC1=NS(=O)(=O)c2ccccc21 | 183 °C |
| COc1ccc(/C=C(\C)c2ccc3c(c2)C(C)(C)CCC3(C)C)cc1 | 108 to 110 °C |
| C=Cc1cn(-c2c(Cl)cc(C(F)(F)F)cc2Cl)nc1C | 68.1 to 68.7 °C |
| O=C1OC(=Cc2ccccc2C(F)(F)F)C(O)=C1c1ccc(-c2ccccc2)cc1 | 228 to 230 °C |
| c1ccc(Nc2nc(-c3cccnc3)nc3ccccc23)cc1 | 173 to 178 °C |
| O=C(O)c1cccc(N2C(=O)c3ccc([N+](=O)[O-])cc3C2=O)c1 | 368 to 370 °C |
| O=C(c1ccccc1)c1ccc2nc(C(F)(F)F)c(Br)nc2c1 | 152 to 154 °C |
| CC(=O)NC1(c2ccc(CN3CCN(c4cccc(F)n4)CC3)cc2)CC1 | 135 to 136 °C |
| O=C(c1ccccc1)C(Br)(Br)Br | 63 to 64 °C |
| CC(C)(C)OC1CCC(C(=O)O)CC1 (stereo not given) | 100 to 105 °C |
| CN(C)NC(=O)N1CCC(=Cc2cc(C(C)(C)C)c(O)c(C(C)(C)C)c2)C1=O | 133 to 134 °C |
| O=C(O)CN1C(=O)C(=Cc2cccc(Cl)c2)SC1=S | 227 to 229 °C |
| CCN1c2ccc(C)cc2C2CN(CCCC(=O)c3ccc(F)cc3)CCC21 (stereo not given) | 150 to 153 °C |
| O=C(O)[C@@H]1C[C@H]2C[C@@H](CCc3cc(O)no3)CC[C@H]2CN1 (racemic) | 256 °C |
| CCn1c(=O)c2c(nc(/C=C/c3cc4c(cc3Br)OCO4)n2C)n(CC)c1=O | 255 to 256 °C |
| Clc1ccc2c(c1)c(-c1ccccc1)nc1nccn12 | 270 to 272 °C |
| O=c1c2ccccc2sc2c(Cl)cc(Cl)c(Oc3ccccc3)c12 | 197 to 198 °C |
| CSc1c(NCc2ccncc2)cnn(C(C)(C)C)c1=O | 107 to 110 °C |
| CCC(CC)N(C)Cc1ccc(NC(=O)C2=Cc3cc(-c4ccc(C)cc4)ccc3SCC2)cc1 | 136 to 137 °C |
| O=c1[nH]c2ncc(-c3ccc(-n4ccnn4)cc3)nc2n1CC1CCCCC1 | 276 to 278 °C |
